Assay results as given in patent US9051342B2 (priority 2004, dated 2015).

What was measured:
[1] = system: luciferase with nonsense mutation in a specific codon context (UGAA, UGAC, UAAA or UAAC); test: Western blot of luciferase protein produced by suppression of the nonsense mutation; assay type: cell-based, Human embryonic kidney cells (293 cells); conditions: 293 cells treated with compound, continuation lines list further codon contexts
Description: Nonsense suppression activity in an assay as described above is shown in the Table 3 below, for a construct with a UGA nonsense mutation at position 190, followed by a cytosine nucleotide in-frame, (UGAC); for a construct with UAG nonsense mutation at position 190, followed by an adenine nucleotide in-frame, (UAGA); for a construct with […] nonsense mutation at position 190, followed by an adenine nucleotide in-frame, (UAAA); and a construct with a UAA nonsense mutation at position 190, followed by an cytosine nucleotide in-frame, (UAAC). Also included in Table 3 is a column (“western blot”) indicating whether treatment of cells with the indicated compound suppresses the nonsense mutation in a specific codon context (UGAA, UGAC, UAAA or UAAC) in luciferase and results in production of luciferase protein as determined by a positive signal on a western blot. A positive result in the western blot assay is indicated by a “+” and the nonsense codon and context of the codon that is suppressed.
Another assay of the present invention can evaluate compounds that promote nonsense mutation suppression. The luciferase constructs described above in FIG. 1 are engineered to harbor two epitope tags in the N-terminus of the luciferase protein. Based on luciferase protein production, these constructs qualitatively assess the level of translation-readthrough. The presence of the full-length luciferase protein produced by suppression of the premature termination codon is measured by immunoprecipitation of the suppressed luciferase protein (using an antibody against a His tag) followed by western blotting using an antibody against the second epitope (the Xpress™ epitope; Invitrogen®; Carlsbad, Calif.). These constructs are depicted in FIG. 2.
Cells that harbor the constructs of FIG. 2 show increased full-length protein production when treated with a compound of the present invention. After treatment for 20 hours, cells containing the constructs of FIG. 2 are collected and an antibody recognizing the His epitope is used to immunoprecipitate the luciferase protein. Following immunoprecipitation, western blotting is performed using the antibody to the Xpress™ epitope (Invitrogen®; Carlsbad, Calif.) to detect the truncated luciferase (produced when no nonsense suppression occurs) and to detect the full-length protein (produced by suppression of the nonsense codon). Treatment of cells with a test compound produces full-length protein and not a readthrough protein (See e.g., FIG. 3). The readthrough protein is produced if suppression of the normal termination codon occurs. Compounds of the present invention suppress the premature, i.e. nonsense mutation, but not the normal termination codon in the luciferase mRNA.

O=C(O)c1ccc(-c2ccn(-c3ccc(C(F)(F)F)cc3)c2)cc1 [Compound 105, 4-[1-(4-Trifluoromethyl-phenyl)-1H-pyrrol-3-yl]-benzoic acid]
melting point: 315 to 317 °C
western blot: production of luciferase protein; + and the codon context that is suppressed ([1]; UAAA codon context construct): UAAA
western blot: production of luciferase protein; + and the codon context that is suppressed ([1]; UGAA codon context construct): +; UGAA;
western blot: production of luciferase protein; + and the codon context that is suppressed ([1]; UGAC codon context construct): UGAC;
